We go through three compounds from patent EP1206941A1, “ACTIVITY PO[…] CHEMOTHERAPEUTICS, ANTICANCER COMPOSITIONS AND METHOD FOR POTENTIATING THE ACTIVITY OF CHEMOTHERAPEUTICS” (HISAMITSU PHARMACEUTICAL CO. INC., priority 1999, dated 2001).

The structures appear in SMILES notation. pEC50: −log10 of the molar value. Read-outs that look alike come from different tables or passages of the source. *1 amine or outer side, *2 acyl side, *3 side chain or, on linkers, in order; H or OH if unused. Where a SMILES comes first, the peptide text is derived from it. Bridges are numbered along the chain shown (N, C = ends). Roman numbers before positions name the chains, in order. [ ]: non-standard residue; d: D form. Actinocin(9to1) = Cc1c2oc3c(C)ccc(C(=O)[*:1])c3nc-2c(C(=O)[*:2])c(N)c1=O; NMeV = CN[C@H](C(=O)O)C(C)C; Sar = CNCC(=O)O

The test deals with Murine melanoma B16 · BL6 cells. The test is described as follows: Assay for apoptosis-inducing activity (TNF bioassay, crystal violet staining). It counts as cell-based. Conditions: for potentiation of apoptosis-inducing activity: ED50 alone versus ED50 in the presence of peptide (SEQ ID NO:2) 50 µg/ml; for EC50 / pEC50: Mus musculus, B16-BL6, 19 h, 19 hours, Probit method, read-out: ED50 (apoptosis-inducing activity). How it is done:
The potentiating effects on the apoptosis-inducing activity of chemotherapeutic agents were evaluated based on whether or not the apoptosis-inducing activity of anticancer agents of the apoptosis-inducing type would be affected by the combined use of the aforementioned synthetic peptide.
Specifically, the apoptosis-inducing activity of anticancer agents of three kinds of apoptosis-inducing type agents was compared between the presence of the peptide and the absence of the peptide. Determination of the apoptosis-inducing activity was carried out according to TNF bioassay (K. Hirano et al., J. Biochem., 105, 120, 1989). The details are provided below.
A 96-well was coated with human plasma fibronectin at a concentration of 5 µg/ml (prepared according to the method of Fukai et al., J. Biol. Chem., 266, 8807, 1991) and was subjected to blocking with bovine serum albumin (Sigma), after which it was suspended in a serum-free culture: the culture was a mixture of Dulbeccos Modified Eagle Medium and Ham F12 medium at a volume ratio of 1:1 and will be referred to as DMEM/Ham medium hereafter (Nissui Pharmaceutical Co. Ltd.). Murine melanoma B16 · BL6 cells were inoculated onto the plate at 2x10^4 cells/well. After cell adhesion and distention were confirmed by cultivating the cells at 37 °C and under 5% CO2 atmosphere for 2 hours, the culture supernatant was removed and a mixed solution comprising a chemotherapeutic agent and the peptide was added thereto. Cultivation was conducted for 19 hours. The peptide was prepared to give a final concentration of 50 µg/ml, and the chemotherapeutic agents were dissolved in DMEM/Ham medium at a variety of concentrations. As controls, only the peptide and only the chemotherapeutic agent at the same concentrations as those described were added. Cultivation was conducted for 19 hours. In Example 9 doxorubicin (abbreviated as DOX) was used; in Example 10 VCR was used; and in Example 11 AcD was used. DOX was also purchased from Sigma. After cultivation, the above mixed solution was removed and exchanged with a DMEM/HaM medium containing 10% bovine fetal serum (URH Biosciences) for further cultivation overnight. After fixing with 5% formaldehyde (Wako Pure Chemical Industries Ltd.), the cells having undergone apoptosis were removed through washing and the cells adhered to the plate were stained with a 0.5% crystal violet solution. Excessive dye was washed out with water. After lyzing the cells with 1% SDS and extracting the dye, absorbance at a wavelength of 595 nm was measured with a microplate reader (Spectra Rainbow Thermo; Wako Pure Chemical Industries Ltd.).

Setting [1] is: chemotherapeutic agent used alone.
[2] abbreviates: in the presence of peptide (SEQ ID NO:2) 50 µg/ml.

On to `CC[C@]1(O)C[C@H]2CN(CCc3c([nH]c4ccccc34)[C@@](C(=O)OC)(c3cc4c(cc3OC)N(C=O)[C@H]3[C@@](O)(C(=O)OC)[C@H](OC(C)=O)[C@]5(CC)C=CCN6CC[C@]43[C@@H]65)C2)C1` [VCR, vincristin], for which the “potentiation of apoptosis-inducing activity” value (shortened to “potentiation”) is ~27,000 fold. Further, the EC50 under setting [1] was determined as 111 µg/mL. Also, the EC50 under setting [2] is 0.0036 µg/mL.
For `COc1cccc2c1C(=O)c1c(O)c3c(c(O)c1C2=O)C[C@@](O)(C(=O)CO)C[C@@H]3O[C@H]1C[C@H](N)[C@H](O)[C@H](C)O1` [DOX, doxorubicin], the “potentiation” value is reported as approximately 7.6 fold. Moreover, the EC50 under setting [1] turned out to be 0.293 µg/mL. Further, the EC50 under setting [2] worked out at 0.039 µg/mL.
For `Cc1c2oc3c(C)ccc(C(=O)N[C@@H]4C(=O)N[C@H](C(C)C)C(=O)N5CCC[C@H]5C(=O)N(C)CC(=O)N(C)[C@@H](C(C)C)C(=O)O[C@@H]4C)c3nc-2c(C(=O)N[C@@H]2C(=O)N[C@H](C(C)C)C(=O)N3CCC[C@H]3C(=O)N(C)CC(=O)N(C)[C@@H](C(C)C)C(=O)O[C@@H]2C)c(N)c1=O` [AcD, actinomycin D] (I: T[dV]P[Sar][NMeV] / II: T[dV]P[Sar][NMeV]; ester I:1-I:C, II:1-II:C; linker I:N-II:N via Actinocin(9to1)), the “potentiation” value was ~40,000 fold. Further, the pEC50 under setting [1] was 6.12. Under setting [2], the pEC50 was 10.84.
